Results as given in US12319703B2, “Macrocyclic fused pyrazoles as Mcl-1 inhibitors” (ASCENTAGE PHARMA (SUZHOU) CO., LTD., priority 2019, dated 2025).
Converted amounts (≈) assume the structure as drawn.

Tests used:
[1] = from CCOC(=O)c1c(CCCOc2cc(S)cc3ccccc23)c2ccc(Cl)c(-c3c(CSCc4cc(CBr)n(C)n4)nn4c3CCC4)c2n1C; thioether bond; K2CO3; acetonitrile; 3.14 mM; 25.0 °C; 3.0 h; 6 steps
NCI-H929 cells = experiment: Cell viability assay (NCI-H929 cells), CCK-8; type: cell-based; conditions: Homo sapiens, NCI-H929, 24 h, WST, 5% FBS
OPM-2 cells = experiment: Cell viability assay (OPM-2 cells), CCK-8; type: cell-based; conditions: Homo sapiens, OPM-2, 24 h, WST, 5% FBS, read-out: OPM2 (WST, 5% FBS)
How it was run: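 OPM-2 cells from DSMZ were tested for viability with a Cell Counting Kit-8 (CCK-8) assay. Serially diluted compound (100 μL) was added to 96-well plates, then 100 μL of cell suspension (20000 cells/well) was added, and plates were incubated at 37° C. under 5% CO2 for 24 hours. After 20 μL CCK-8 solution and 4 hours of incubation, absorbance was read at 450 nm. Readings were normalized to vehicle and IC50 was fitted by nonlinear regression in GraphPad Prism 6.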

[2] = target: T1, Mcl-1 protein (residues 171-323) (Homo sapiens, UniProt Q07820); experiment: Inhibition of Mcl-1 by fluorescence polarization (FP) competitive binding assay; conditions: FAM-Bid tracer 2 nM, Mcl-1 20 nM, 30 min
T1 construct: Tag-free Mcl-1 protein (residues 171-323) was used in the FP assay
T1 sequence (Q07820 171-323): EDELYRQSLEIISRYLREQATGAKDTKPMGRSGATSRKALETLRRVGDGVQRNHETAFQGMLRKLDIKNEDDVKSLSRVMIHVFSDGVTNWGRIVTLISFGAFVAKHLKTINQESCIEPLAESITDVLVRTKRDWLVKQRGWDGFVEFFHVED
How it was run: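 FAM-Bid peptide (2 nM) was competed against Mcl-1 (20 nM) in PBS with 0.01% BGG and 0.01% Triton X-100 at 5% final DMSO. Anisotropy was read as mP over a 10-point dilution series. IC50 came from a sigmoidal dose-response nonlinear fit.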

Kinetic solubility assay = type: physicochemical; conditions: PBS buffer pH 6.5, aqueous buffer, thermodynamic from solid; pH 6.5 PBS buffer, HPLC; read-out: Solubility (pH 6.5, μg/mL)
Experimental: Representative Compounds of the Disclosure were tested in a solubility assay with pH 6.5 PBS buffer. PBS buffer was prepared by dissolving 4.86 g of potassium dihydrogen phosphate and 5.09 g of disodium hydrogen phosphate dodecahydrate in 1 L of ultrapure water to have final pH value of 6.5. In the solubility assay, 0.5 mg of test sample was dissolved in 1 mL of methanol and the stock solution was transferred into 2 mL EP tube, and evaporated at 50° C. for 3 h. To the tube was added 1 mL of PBS buffer and the mixture was stirred and shaken for 1-2 h. The solution was allowed to stand overnight and then filtered before HPLC analysis. Another 1.5 mg of the sample was dissolved in 3 mL of methanol to prepare a calibration curve with a series of concentration range of 5-500 μM. The solubility of each sample was determined by the measured peak area in HPLC.

Row | IC50 (NCI-H929 cells) | IC50 [2] | solubility (Kinetic solubility assay) | SMILES | ring closure, yield of all isomers [1] | IC50 (OPM-2 cells)
1 | 3540 nM | 10.6 nM | < 1 µg/mL | Cc1oc2nc1CSc1cc(c3ccccc3c1)OCCCc1c(C(=O)O)n(C)c3c(c(Cl)ccc13)-c1c(nn3c1CCC3)CSC2 [compound 11, (Z)-1^6-chloro-1^1,6^5-dimethyl-2^5,2^6-dihydro-1^1H,2^4H-10-oxa-4,8-dithia-6(2,4)-oxazola-1(7,3)-indola-2(3,2)-pyrrolo[1,2-b]pyrazola-9(3,1)-naphthalenacyclotridecaphane-1^2-carboxylic acid] |  | > 10000 nM
2 | 51 nM | 24.9 nM | 52 µg/mL (≈ 74 µM) | Cn1nc2cc1CSc1cc(c3ccc(F)cc3c1)OCCCc1c(C(=O)O)n(C)c3c(c(Cl)ccc13)-c1c(nn3c1CCC3)CSC2 [compound 27, (Z)-1^6-chloro-9^6-fluoro-1^1,6^1-dimethyl-2^5,2^6-dihydro-1^1H,2^4H,6^1H-10-oxa-4,8-dithia-1(7,3)-indola-2(3,2)-pyrrolo[1,2-b]pyrazola-6(3,5)-pyrazola-9(3,1)-naphthalenacyclotridecaphane-1^2-carboxylic acid] |  | 153 nM
3 | 44 nM | 30.9 nM | 1 µg/mL (≈ 1.4 µM) | Cn1nc2cc1CSc1cc(c3ccc(F)cc3c1)OCCCc1c(C(=O)O)n(C)c3c(c(Cl)ccc13)-c1c(nn3c1CCCC3)CSC2 [compound 26, (Z)-1^6-chloro-96-fluoro-1^1,6^1-dimethyl-2^4,2^5,2^6,2^7-tetrahydro-1^1H,6^1H-10-oxa-4,8-dithia-2(3,2)-pyrazolo[1,5-a]pyridina-1(7,3)-indola-6(3,5)-pyrazola-9(3,1)-naphthalenacyclotridecaphane-1^2-carboxylic acid] |  | 133 nM

The remaining lines, values behind:

Row | SMILES | IC50 (NCI-H929 cells) | IC50 [2] | solubility (Kinetic solubility assay) | ring closure, yield of all isomers [1] | IC50 (OPM-2 cells)
4 | Cn1nc2cc1CSc1cc(c3ccccc3c1)OCCCc1c(C(=O)O)n(C)c3c(c(Cl)ccc13)-c1c(nn3c1CCC3)CSC2 |  |  |  | 3% | 
5 | Cc1c2c(nn1C)CN(C1CC1)Cc1cc(n(C)n1)CSc1cc(c3ccccc3c1)OCCCc1c(C(=O)O)n(C)c3c-2c(Cl)ccc13 [compound 49, (Z)-1^6-chloro-4-cyclopropyl-1^1,2^1,2^5,6^1-tetramethyl-1^1H,2^1H,6^1H-10-oxa-8-thia-4-aza-1(7,3)-indola-2(4,3),6(3,5)-dipyrazola-9(3,1)-naphthalenacyclotridecaphane-1^2-carboxylic acid] | 55 nM | 21 nM | 28 µg/mL (≈ 40.3 µM) |  | 167 nM
6 | Cn1nc2cc1CSCc1nn3c(c1-c1c(Cl)ccc4c(c(C(=O)O)n(C)c14)CCCOc1cc(cc4ccccc14)SC2)CCC3 [compound 7, (Z)-1^6-chloro-1^1,6^1-dimethyl-2^5,2^6-dihydro-1^1H,2^4H,6^1H-10-oxa-4,8-dithia-1(7,3)-indola-2(3,2)-pyrrolo[1,2-b]pyrazola-6(5,3)-pyrazola-9(3,1)-naphthalenacyclotridecaphane-1^2-carboxylic acid] | 1130 nM | 150 nM | 1 µg/mL (≈ 1.46 µM) |  | 774 nM
7 | Cc1c2c(nn1C)CN(S(C)(=O)=O)Cc1cc(n(C)n1)CSc1cc(c3ccccc3c1)OCCCc1c(C(=O)O)n(C)c3c-2c(Cl)ccc13 [compound 36, (Z)-1^6-chloro-1^1,2^1,2^5,6^1-tetramethyl-4-(methylsulfonyl)-1^1H,2^1H,6^1H-10-oxa-8-thia-4-aza-1(7,3)-indola-2(4,3),6(3,5)-dipyrazola-9(3,1)-naphthalenacyclotridecaphane-1^2-carboxylic acid] | 71 nM | 19 nM | 16 µg/mL (≈ 21.8 µM) |  | 317 nM
8 | Cn1nc2cc1CSc1cc(c3cc(F)ccc3c1)OCCCc1c(C(=O)O)n(C)c3c(c(Cl)ccc13)-c1c(nn3c1COCC3)CSC2 [compound 16, (Z)-1^6-chloro-9^7-fluoro-1^1,6^1-dimethyl-2^6,2^7-dihydro-1^1H,2^4H,6^1H-10-oxa-4,8-dithia-2(3,2)-pyrazolo[5,1-c][1,4]oxazina-1(7,3)-indola-6(3,5)-pyrazola-9(3,1)-naphthalenacyclotridecaphane-1^2-carboxylic acid] | 360 nM | 20.7 nM | < 1 µg/mL |  | 2400 nM
9 | Cn1nc2cc1CSc1cc(c3ccc(F)cc3c1)OCCCc1c(C(=O)O)n(C)c3c(c(Cl)ccc13)-c1c(nn3c1CCC3)CN(S(C)(=O)=O)C2 [compound 44, (Z)-1^6-chloro-9^6-fluoro-1^1,6^1-dimethyl-4-(methylsulfonyl)-2^5,2^6-dihydro-1^1H,2^4H,6^1H-10-oxa-8-thia-4-aza-1(7,3)-indola-2(3,2)-pyrrolo[1,2-b]pyrazola-6(3,5)-pyrazola-9(3,1)-naphthalenacyclotridecaphane-1^2-carboxylic acid] | 156 nM | 15 nM | > 400 µg/mL |  | 506 nM
